Earlier results on eleven compounds are cited in PubChem BioAssay AID1259410 (Chemical Carcinogenesis Research Information System (CCRIS), 2018).

The test system of the data set is rodent tumor promotion studies, tumor incidence. The data set is described as follows: CCRIS tumor promotion studies. The text has this:
The CCRIS database contains chemical records with carcinogenicity, mutagenicity, tumor promotion, and tumor inhibition test results. It was developed by the National Cancer Institute (NCI). Data are derived from studies cited in primary journals, current awareness tools, NCI reports, and other sources. Test results have been reviewed by experts in carcinogenesis and mutagenesis.
CCRIS provides historical information from the years 1985 - 2011. It is no longer updated.
This is an archive assay for CCRIS tumor promotion studies.

[1] abbreviates: Carcinogen: 7,12-DIMETHYLBENZ(A)ANTHRACENE, Doses [Carcinogen]: TOP, Route [Carcinogen]: DERMAL, Route [Promoter]: DERMAL, Species: MOUSE, Strain/Sex: FEMALE.

For the compound `O=C1c2c(O)cccc2Cc2cccc(O)c21`, the outcome (Carcinogen: 7,12-DIMETHYLBENZ(A)ANTHRACENE, Doses [Carcinogen]: TOP, Route [Carcinogen]: DERMAL, Route [Promoter]: DERMAL, Species: MOUSE, Strain/Sex: MALE,FEMALE) is given as “integumentary system (skin)”. Take `Oc1c(Cl)c(Cl)c(Cl)c(Cl)c1Cl`: the outcome (Carcinogen: DIETHYLNITROSAMINE [55-18-5], Doses [Carcinogen]: 20 PPM IN DRINKING WATER FOR 13 WEEKS (STUDY DURATION: 42 WK), Doses [Promoter]: 300 PPM IN DIET FOR 25 WK BEGINNING 4 WK POST LAST CARCINOGEN DOSE (STUDY DURATION: 42 WK), Route [Carcinogen]: ORAL, Route [Promoter]: ORAL, Species: MOUSE, Strain/Sex: B6C3F1/MALE) is given as “liver: adenoma or carcinoma” and the outcome (Carcinogen: DIETHYLNITROSAMINE [55-18-5], Doses [Carcinogen]: 20 PPM IN DRINKING WATER FOR 13 WEEKS (STUDY DURATION: 42 WK), Doses [Promoter]: 600 PPM IN DIET FOR 25 WK BEGINNING 4 WK POST LAST CARCINOGEN DOSE (STUDY DURATION: 42 WK), Route [Carcinogen]: ORAL, Route [Promoter]: ORAL, Species: MOUSE, Strain/Sex: B6C3F1/MALE) was “liver: adenoma or carcinoma”. Take `Oc1cc(Cl)c(Cl)cc1Cl`: the outcome under setting [1] is given as “integumentary system (skin)”. On to `Nc1ccc(Cc2ccc(N)cc2)cc1`, for which the outcome (Carcinogen: 2,2'-DIHYDROXY-N-NITROSODIPROPYLAMINE, 53609-64-6, Doses [Carcinogen]: 280 MG/100 G IN 0.5 ML SALINE ONCE, Doses [Promoter]: 0, 1000 PPM IN DIET FOR 19 WK (STUDY DURATION: 19 WK), Route [Carcinogen]: INTRAPERITONEAL, Route [Promoter]: ORAL, Species: RAT, Strain/Sex: WISTAR/MALE) is given as “thyroid: tumor” and the outcome (Carcinogen: N-BIS(2-HYDROXYPROPYL)NITROSAMINE, 53609-64-6, N-ETHYL-N-HYDROXYETHYLNITROSAMINE, 13147-25-6, 3,2'-DIMETHYL-4-AMINOB, Carcinogen: N-BIS(2-HYDROXYPROPYL)NITROSAMINE, 53609-64-6, N-ETHYL-N-HYDROXYETHYLNITROSAMINE, 13147-25-6, 3,2'-DIMETHYL-4-AMINOB, Doses [Carcinogen]: 1000 MG/KG IP IN SALINE ON DAY 1 AND 4, 1500 MG/KG IG IN DISTILLED WATER ON DAY 8 AND 11, 75 MG/KG SC IN CORN OIL ON D, Doses [Carcinogen]: 1000 MG/KG IP IN SALINE ON DAY 1 AND 4, 1500 MG/KG IG IN DISTILLED WATER ON DAY 8 AND 11, 75 MG/KG SC IN CORN OIL ON D, Doses [Promoter]: 0, 0.1% IN DIET BEGINNING 1 WK POST LAST CARCINOGEN DOSE AND CONTINUING FOR 12 WK (STUDY DURATION: 16 WK), Route [Carcinogen]: INTRAPERITONEAL, GAVAGE, SUBCUTANEOUS, Route [Carcinogen]: INTRAPERITONEAL, GAVAGE, SUBCUTANEOUS, Route [Promoter]: ORAL, Species: RAT, Strain/Sex: F344/MALE) is reported as “thyroid: adenoma, adenocarcinoma”. In the case of `CCOc1ccc2c(c1)C(C)=CC(C)(C)N2`, the outcome runs as follows: (Carcinogen: 1,2-DIMETHYLHYDRAZINE, 540-73-8, Doses [Carcinogen]: 20 MG/KG 1/WK FOR 4 WK, Doses [Promoter]: 0, 0.8% IN DIET FOR 36 WK (STUDY DURATION: 40 WK), Route [Carcinogen]: SUBCUTANEOUS, Route [Promoter]: ORAL, Species: RAT, Strain/Sex: F344/MALE) “colon: tumor”; (Carcinogen: N-BUTYL-N-(4-HYDROXYBUTYL)NITROSAMINE, 3817-11-6, Doses [Carcinogen]: 0.05% IN DRINKING WATER FOR 4 WK, Doses [Promoter]: 0, 0.8% IN DIET FOR 32 WK (STUDY DURATION: 36 WK), Route [Carcinogen]: ORAL, Route [Promoter]: ORAL, Species: RAT, Strain/Sex: F344/MALE) “urinary bladder: papilloma, carcinoma”; (Carcinogen: N-BUTYL-N-(4-HYDROXYBUTYL)NITROSAMINE, 3817-11-6, Doses [Carcinogen]: 0.05% IN DRINKING WATER FOR 4 WK, Doses [Promoter]: 0, 0.8% IN DIET FOR 32 WK BEGINNING POST CARCINOGEN (STUDY DURATION: 36 WK), Route [Carcinogen]: ORAL, Route [Promoter]: ORAL, Species: RAT, Strain/Sex: F344/MALE) “bladder: papilloma”; (Carcinogen: N-ETHYL-N-(HYDROXYETHYL)NITROSAMINE, 13147-25-6, Doses [Carcinogen]: 0.1% IN DRINKING WATER FOR 2 WK, Doses [Promoter]: 0, 0.8% IN DIET FOR 29 WK (STUDY DURATION: 31 WK), Route [Carcinogen]: ORAL, Route [Promoter]: ORAL, Species: RAT, Strain/Sex: F344/MALE) “kidney: adenoma”. Regarding `Cn1cnc([N+](=O)[O-])c1Sc1ncnc2nc[nH]c12`, the outcome (Carcinogen: UV IRRADIATION, Doses [Carcinogen]: 0.53 J/CM2 INCREASED BY 20% EVERY 2 WK TO 1.60 J/CM2 AND MAINTAINED AT 1.60 J/CM2 UNTIL DEATH, ADMINISTERED 5 D/WK FOR 1, Doses [Promoter]: 0, 15 UG/G BEGINNING 2 WK POST FIRST CARCINOGEN DOSE ADMINISTERED 2 HR PRIOR TO EACH CARCINOGEN DOSE (STUDY DURATION: 30, Route [Carcinogen]: DERMAL, Route [Promoter]: INTRAPERITONEAL, Species: MOUSE, Strain/Sex: SKH/HRL/FEMALE) is on record as “skin: tumor”.

Turning to `[Cl][Cd][Cl]`, the outcome runs as follows: (Carcinogen: 3,2'-DIMETHYL-4-AMINOBIPHENYL, 13394-86-0, Doses [Carcinogen]: 50 MG/KG BW IN 0.5 ML CORN OIL 1/2 WK FOR 20 WK, Doses [Promoter]: 0, 10 UMOL/KG BW IN SALINE ONCE AT WK 20 (STUDY DURATION: 60 WK), Route [Carcinogen]: SUBCUTANEOUS, Route [Promoter]: INTRAMUSCULAR, Species: RAT, Strain/Sex: F344/MALE) “ventral prostate: carcinoma”; (Carcinogen: 3,2'-DIMETHYL-4-AMINOBIPHENYL, 13394-86-0, Doses [Carcinogen]: 50 MG/KG BW IN 0.5 ML CORN OIL 1/2 WK FOR 20 WK, Doses [Promoter]: 0, 10 UMOL/KG BW IN SALINE ONCE AT WK 20 AND 0, 5 UMOL/KG BW ONCE AT WK 40 (STUDY DURATION: 60 WK), Doses [Promoter]: 0, 10 UMOL/KG BW IN SALINE ONCE AT WK 20 AND 0, 5 UMOL/KG BW ONCE AT WK 40 (STUDY DURATION: 60 WK), Route [Carcinogen]: SUBCUTANEOUS, Route [Promoter]: INTRAMUSCULAR, Species: RAT, Strain/Sex: F344/MALE) “ventral prostate: carcinoma”. With `CCCCCCCCCCO`, the outcome under setting [1] was “integumentary system (skin)”. On to `CC(=O)O`, for which the outcome (Carcinogen: LEAD SUBACETATE, 1335-32-6, Doses [Carcinogen]: 1% IN DIET FOR 18 MO, Doses [Promoter]: 0, 0.3, 1, 3, 6% IN DIET FOR 18 MO (STUDY DURATION: 79 WK), Doses [Promoter]: 0, 0.3, 1, 3, 6% IN DIET FOR 18 MO (STUDY DURATION: 79 WK), Route [Carcinogen]: ORAL, Route [Promoter]: ORAL, Species: RAT, Strain/Sex: SPRAGUE-DAWLEY/MALE) is given as “kidney: tumor”. With `Oc1ccc(I)cc1`, the outcome under setting [1] is recorded as “integumentary system (skin)”.

On to `CC/C(=C(/CC)c1ccc(O)cc1)c1ccc(O)cc1`, for which the outcome reads like this: (Carcinogen: IRRADIATION, Doses [Carcinogen]: 260 CGY GAMMA RAYS AT DAY 20 OF PREGNANCY, Doses [Promoter]: 0, 0.376 UG/D RELEASED FROM PELLET IMPLANTED AFTER NURSING DISCONTINUED, PELLET REPLACED EVERY 8 WK (STUDY DURATION: 1 Y, Route [Carcinogen]: DERMAL, Route [Promoter]: IMPLANT, Species: RAT, Strain/Sex: WISTAR/FEMALE) “mammary gland: tumor”; (Carcinogen: Sodium arsenite, 7781-46-5, Doses [Carcinogen]: 0, 85 ppm to dams on gestational days 8-18, Doses [Promoter]: 2 ug on days 1, 2, 3, 4, and 5 of life, study duration for pups 90 wks, Route [Carcinogen]: Drinking water, days 8-18 of gestation (dams), Route [Promoter]: Subcutaneous (to offspring), Species: Mouse, Strain/Sex: C3H/HeNCr, (25 Male and female offspring/Group of dams exposed to sodium arsenite)) “males: urinary bladder: tumors, liver: tumors females: urogenital tumors”; (Carcinogen: URETHANE, 51-79-6, Doses [Carcinogen]: 500 MG/KG BW ONCE (STUDY DURATION: 19 WK), Doses [Promoter]: 5 MG/KG BW 1X/WK FOR 18 WK BEGINNING 1 WK POST LAST CARCINOGEN DOSE (STUDY DURATION: 19 WK), Route [Carcinogen]: INTRAPERITONEAL, Route [Promoter]: INTRAMUSCULAR, Species: MOUSE, Strain/Sex: KUNMING/FEMALE) “liver: tumor”.
